Like-named read-outs stand apart in the source and are kept apart here. One block for each compound: values may come before it.
Columns and labels:
[1] = cited from earlier work
[2] = Mouse plasma levels of 5-HTP; type: in vivo; conditions: mouse forced swim test with escitalopram versus human clinical efficacy
Description: For this indication, typical doses of 100-200 mg of 5-HTP result in plasma levels of 50-100 ng/ml (Gijsman, H. J., et al., J Clin Psychopharmacol. 2002 April, 22(2):183-9).

[3] = test system: NMRI/BOM mice; assay: Mouse forced swim test; type: in vivo; conditions: for ED50: SRI alone, mouse forced swim test; for ED50, SRI + 5-HTP (25 mg/kg): SRI in combination with 5-HTP 25 mg/kg SC
Text: Male NMRI/BOM mice (18-25 g; Bomholtgaard, Denmark) were used. The mice were housed in plastic cages (35×30×12 cm), 10 in each and habituated to the animal facilities for at least a week before test. […] The animals had free access to commercial food pellets and tap water before test.
A mouse that is forced to swim in a spatially constrained container will exert a characteristic immobile posture. Pretreatment with an antidepressant will counteract this effect. […] Briefly, a fully automated test system with 6 swim units (2000 ml glass jars filled with 1200 ml soiled water (23-25° C.) in which a mouse had been placed previously) was used. The assessment of immobility was performed by image analysis.
Thirty minutes after drug or vehicle treatment the mice were treated with 5-HTP and 20 min later the mice were placed into the glass jar and left in the water for a total of 6 min. The accumulated duration of immobility was measured during the last 3 min. A total of 9-18 mice were tested per dose.

[4] = test system: BALB/cByJ mice; assay: Mouse marble burying behavior; type: in vivo
Text: Male BALB/cByJ mice (Jackson labs, Bar Harbor, Me.) were housed 5/cage upon arrival, at which time they were 7-8 weeks of age. Animals acclimated to the housing facility under standard laboratory conditions for a period of at least one week before testing (lights on at 6:00 AM). […] Fifteen minutes after the second injection, animals were individually placed into novel cages in which a layer of Aspen Pine bedding on which two parallel rows of 10 marbles each (i.e. twenty total) were placed. After 30 minutes had elapsed, the mice were removed from their test cages and returned to their home cages. The number of fully visible marbles (less than ⅔ covered with bedding) were counted and subtracted from 20 to arrive at the number of marbles buried.

[5] = typical doses of 100-200 mg 5-HTP; cited from earlier work
[6] = test system: rat; conditions: cited from earlier work
[7] = test system: extra-cellular 5-HT in frontal cortex; assay: Rat microdialysis, extracellular 5-HT in frontal cortex of freely moving rats; type: in vivo; conditions: escitalopram 0.5 mg/kg s.c. versus fluoxetine 10 mg/kg s.c.; 5-HTP 25 mg/kg s.c. 60 min later
Description: FIG. 1. […] Microdialysis in freely moving rats was performed as described in detail by Mark, […]. and Sanchez, C. […] Briefly, male Sprague-Dawley rats were prepared for microdialysis by surgically implanting intracerebral guide cannulas. A microdialysis probe was inserted through the guide cannula. Perfusion of the microdialysis probe with filtered Ringer solution (146 mM NaCl, 3 mM KCl, 1 mM MgCl2, 1.2 mM CaCl2) was done before the insertion of the probe and continued for the duration of the experiments at a constant flow of 1 μl/minute into the frontal cortex.

[8] = test system: mouse; conditions: co-administration with L; cited from earlier work
[9] = in combination with escitalopram at a dose corresponding to a clinically effective concentration

factor by which potentiating plasma levels in mouse are lower than those required for clinical efficacy in humans [2]: at least 3 times
SMILES: NC(Cc1c[nH]c2ccc(O)cc12)C(=O)O (centres unmarked) [5-HTP, 2-amino-3-(5-hydroxy-1H-indol-3-yl)-propanoic acid]
mouse plasma level ([1]; 5-HTP 25 mg/kg): 17 ng/mL
mouse plasma level ([1]; 5-HTP 50 mg/kg): 41 ng/mL
potentiation of the response to escitalopram ([3]; 5-HTP 10, 15 and 50 mg/kg co-administered with escitalopram 0.5 mg/kg): significantly potentiates
effect of 5-HTP alone ([3]; 5-HTP 25 and 50 mg/kg without SRI): not by themselves effective
5-HTP dose at which maximum potentiation effect was achieved [3, 9]: 50 mg/kg
minimal effective dose of 5-HTP [3, 9]: 10 mg/kg
marble burying, 5-HTP alone ([4]; 5-HTP 2.5 mg/kg): no behavioral effect
plasma levels in humans [5]: 50 to 100 ng/mL

SMILES: CN(C)CCC[C@@]1(c2ccc(F)cc2)OCc2cc(C#N)ccc21 [Escitalopram, S-(+)-1-[3-(dimethylamino)propyl]-1-(p-fluorophenyl)-5-phthalancarbonitrileoxalate]
anxiolytic response to co-treatment with L, 5-HTP [6]: markedly enhanced
5-HTP potentiation effect measured as increase of extra-cellular 5-HT in the frontal cortex [7]: dramatically higher
ED50 [3]: 12 mg/kg
ED50, SRI + 5-HTP (25 mg/kg) [3]: 0.42 mg/kg
marble burying, escitalopram without 5-HTP ([4]; 0.25 mg/kg IP): inactive
marble burying, escitalopram with 5-HTP ([4]; escitalopram 0.0625-0.25 mg/kg plus 5-HTP 2.5 mg/kg): significant reduction in marble burying

SMILES: CNCCC(Oc1ccc(C(F)(F)F)cc1)c1ccccc1 (centres unmarked) [Fluoxetine]
ED50 [3]: > 8.9 mg/kg
ED50, SRI + 5-HTP (25 mg/kg) [3]: 5.4 mg/kg

SMILES: Fc1ccc([C@@H]2CCNC[C@H]2COc2ccc3c(c2)OCO3)cc1 [Paroxetine, (3S,4R)-3-((1,3-benzodioxol-5-yloxy)methyl)-4-(4-fluorophenyl)-piperidine]
antiaggressive effect with a subeffective dose of L, 5-HTP [8]: greatly potentiated
ED50 [3]: 6.5 mg/kg
ED50, SRI + 5-HTP (25 mg/kg) [3]: 0.64 mg/kg

SMILES: CN(C)CCC[C@]1(c2ccc(F)cc2)OCc2cc(C#N)ccc21 [R-citalopram]
anxiolytic response to co-treatment with L, 5-HTP [6]: significant increase of ultrasonic vocalization

SMILES: COc1ccc(C(CN(C)C)C2(O)CCCCC2)cc1 (centres unmarked) [Venlafaxine]
ED50 [3]: > 10 mg/kg
ED50, SRI + 5-HTP (25 mg/kg) [3]: 3.9 mg/kg

— patent US20070213370A1, “5-HTP Combination Therapy” (H. Lundbeck A/S, priority 2005, published 2007)
